Measurements taken from US11472758B2, “Methods for obtaining compounds from a plant or fungus material, respective compositions, and uses thereof” (Real Isolates, LLC, priority 2020, dated 2022).

Assays:
volunteer with HNPP = assay: Human trial of HCD or MCD for hereditary neuropathy with liability to pressure palsy (HNPP); type: in vivo
Procedure: A volunteer has a rare genetic disorder, HNPP, resulting in neuropathic pain, muscle weakness, numbness, and loss of fine motor skills. The volunteer previously needed high doses (more than 5 g/day) of medical Cannabis to receive beneficial effects, but reduced overall intake when they began taking HCD and MCD. Their current dose schedule is 15-30 mg of HCD per day (˜7 mg-15 mg CBD) and MCD as needed. They are not taking any other medication.

[1] = tested on: volunteer with severe Crohn's disease; assay: Human trial of HCD or MCD for Crohn's disease; type: in vivo
From the text: A volunteer with severe Crohn's disease and who has had over 50 hospital emergency visits since diagnosis in 2015. Treatment with multiple pharmaceutical agents were unsuccessful. They stopped using all pharmaceutical agents in 2018. In August 2020, they began using HCD and MCD. They were able to completely stop a Crohn's disease flare in November 2020 using two consecutive doses of MCD.

[2] = tested on: volunteer with severe, chronic migraines; assay: Human trial of HCD or MCD for chronic migraine; type: in vivo
[3] = tested on: volunteer with a developmental disorder; assay: Human trial of HCD or MCD for autism spectrum/schizophrenia spectrum disorder; type: in vivo
From the text: An assigned person at birth nonbinary volunteer with a history of a developmental disorder whose symptoms span both Autism Spectrum Disorder and Schizophrenia Spectrum Disorder. They stopped taking all psychopharmaceutical agents in 2010 after beginning to use medical Cannabis daily. Outside of 3 relapses due to over 14+ days without Cannabis, they have had no issues managing their symptoms since. Due to decreased symptoms, they are highly functional, fully independent, and no longer meet criteria for their previous diagnoses. In August 2020, they began using the HCD and MCD. They have not missed a single dose of HCD in 5 months; it is their longest span of completely continuous compliance.

CB1R [4] = molecular target: T1, CB1R (Homo sapiens, UniProt P21554); details: known; cited from earlier work
T1 sequence (P21554 whole entry): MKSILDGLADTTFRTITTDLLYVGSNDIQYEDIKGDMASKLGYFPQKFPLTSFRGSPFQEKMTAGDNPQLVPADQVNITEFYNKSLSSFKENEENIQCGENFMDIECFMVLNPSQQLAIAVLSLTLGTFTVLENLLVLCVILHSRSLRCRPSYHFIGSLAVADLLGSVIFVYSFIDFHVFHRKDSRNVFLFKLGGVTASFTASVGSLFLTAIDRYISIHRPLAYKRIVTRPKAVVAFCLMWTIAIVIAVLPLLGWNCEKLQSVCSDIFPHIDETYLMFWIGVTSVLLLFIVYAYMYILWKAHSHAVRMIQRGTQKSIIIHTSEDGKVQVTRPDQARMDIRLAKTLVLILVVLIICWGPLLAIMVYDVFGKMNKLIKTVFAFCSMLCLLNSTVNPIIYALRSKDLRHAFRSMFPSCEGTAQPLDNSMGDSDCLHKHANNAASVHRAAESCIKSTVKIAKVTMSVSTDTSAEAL

CB2R [5] = molecular target: T2, CB2R (Homo sapiens, UniProt P34972); details: known; cited from earlier work
T2 sequence (P34972 whole entry): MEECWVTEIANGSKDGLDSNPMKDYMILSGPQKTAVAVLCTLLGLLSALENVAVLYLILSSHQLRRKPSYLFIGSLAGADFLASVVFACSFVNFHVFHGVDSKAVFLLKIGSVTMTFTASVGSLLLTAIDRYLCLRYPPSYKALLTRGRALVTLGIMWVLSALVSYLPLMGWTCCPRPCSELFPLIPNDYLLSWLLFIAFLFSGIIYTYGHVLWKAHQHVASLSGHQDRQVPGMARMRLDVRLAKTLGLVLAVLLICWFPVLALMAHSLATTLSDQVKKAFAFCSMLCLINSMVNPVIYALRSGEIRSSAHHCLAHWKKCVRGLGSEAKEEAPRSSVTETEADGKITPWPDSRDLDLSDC

mice = details: cited from earlier work
[6] = has been shown; cited from earlier work
CB1R [7] = details: performed similarly to THC, but at a lower potency; cited from earlier work
15-lipoxygenase (15-LOX) = details: has been shown; cited from earlier work
CB1R [8] = molecular target: T1, CB1R; parameters: host or cells: brain synaptosomal samples; COS-7 over-expression; details: brain synaptosomal samples; COS-7 over-expression model; cited from earlier work
CB2R [9] = molecular target: T2, CB2R; parameters: host or cells: brain synaptosomal samples; COS-7 over-expression; details: brain synaptosomal samples; COS-7 over-expression model; cited from earlier work
[10] = smoking/inhalation at 575-600° F., 25 mg CBD isolate
[11] = smoking/inhalation at 575-600° F., 7 mg CBD isolate

C=C(C)[C@@H]1CCC(C)=C[C@H]1c1c(O)cc(CCCCC)cc1O [CBD, cannabidiol]
Effect after oral administration (volunteer with HNPP; oral, 15-30 mg HCD or same dose of commercially available CBD isolate): no noticeable effect
Time at which effects began to wear off (volunteer with HNPP; [10]): 45 min
Time at which no noticeable effects remained (volunteer with HNPP; [10]): 60 min
Time at which pain relief began (volunteer with HNPP; [10]): 10 min
Oral dose needed to achieve results similar to 15 mg HCD ([1]; commercially available CBD isolate, two or more consecutive days): over 50 mg
Time at which effects began to wear off [1, 11]: 45 min
Time at which no noticeable effects remained [1, 11]: 60 min
Time of decreased pain, stress, and anxiety [1, 11]: 15 min
Effect on migraines ([2]; commercial CBD isolate 50 mg/day titrated up to 250 mg/day, after two months): marked decrease in the number and severity of migraines
Oral dose needed to achieve results similar to 15 mg HCD ([2]; commercially available CBD isolate, anxiety, migraine threshold, migraine severity): over 200 mg
After effect observed the next day ([3]; 400-600 mg commercially available CBD isolate): “hangover”
Negative side effects ([3]; doses of 50 mg/day of CBD): forgetfulness/brain fog, apathy, decreased endurance, decreased strength, interrupted sleep routine
Dose used to abort panic attacks and/or break perseverative loops ([3]; oral, same efficacy): 400 to 600 mg
Potency compared to orally ingested hemp Cannabis distillate (times less potent) ([3]; orally ingested, Example 20): at least 10 times
Activity at CB1R (CB1R [4]): neutral antagonist activity at nanomolar concentrations
Activity at CB2R (CB2R [5]): neutral antagonist activity at nanomolar concentrations

CCCCCc1cc(O)c2c(c1)OC(C)(C)c1ccc(C)cc1-2 [CBN, cannabinol]
Pentobarbital-induced sleeping time (mice): double

CCCCCc1cc(O)c2c(c1)OC(C)(C)[C@@H]1CCC(C)=C[C@@H]21 [THC, Δ9-tetrahydrocannabinol]
Activity at CB2R (CB2R [5]): partial agonist activity at nanomolar concentrations

C=C1CC[C@@H]2[C@@H](C1)c1c(O)cc(CCCCC)cc1OC2(C)C [exo-tetrahydrocannabinol]
Antibacterial activity [6]: potent antibacterial activity
Interaction with CB1R (CB1R [4]): interact with CB1R
Activity in drug discrimination trials (CB1R [7]): partial agonist activity

C=C(C)[C@@H]1CCC(C)=C[C@H]1c1c(O)cc(CCCCC)cc1OC [omCBD, o-methylcannabidiol]
15-LOX inhibition (15-lipoxygenase (15-LOX)): selective and potent

CCCCCc1cc(OC)c2c(c1)OC(C)(C)c1ccc(C)cc1-2 [omCBN, o-methylcannabinol]
Potency at CB1 receptor relative to CBN (CB1R [8]): vastly increase its potency
Potency at CB2 receptor relative to CBN (CB2R [9]): vastly increase its potency

CCCCCOc1cc(CCCCC)cc2c1-c1cc(C)ccc1C(C)(C)O2 [opeCBN, o-pentylcannabinol]
Potency at CB1 receptor relative to CBN (CB1R [8]): vastly increase its potency
Potency at CB2 receptor relative to CBN (CB2R [9]): vastly increase its potency

CCCCCc1cc(OCCC)c2c(c1)OC(C)(C)c1ccc(C)cc1-2 [oprCBN, o-propylcannabinol]
Potency at CB1 receptor relative to CBN (CB1R [8]): vastly increase its potency
Potency at CB2 receptor relative to CBN (CB2R [9]): vastly increase its potency

CCCCCc1cc(O)c2c(c1)OC(C)(C)C1CCC(C)C=C21 (centres unmarked) [Δ10-Tetrahydrocannabinol, Δ10-tetrahydrocannabinol]
Interaction with CB1R (CB1R [4]): interact with CB1R
